Assay results: patent publication US8952157B2, “Apoptosis-inducing agents for the treatment of cancer and immune and autoimmune diseases” (AbbVie Inc., priority 2008, dated 2015)
pKi: −log10 of the molar value.

The compounds below were run against GST-Bcl-2 (Homo sapiens (Human), UniProt P10415) (assay: Time Resolved-Fluorescence Resonance Energy Transfer (TR-FRET) Bcl-2 binding assay). Settings: not given.
Method in brief: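 Competition TR-FRET: GST-Bcl-2 with fluorescent Bak peptide probe and Tb-anti-GST antibody, compounds serially diluted from 50 μM (2× start, 10% DMSO).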

Sequence of GST-Bcl-2 (P10415 whole entry): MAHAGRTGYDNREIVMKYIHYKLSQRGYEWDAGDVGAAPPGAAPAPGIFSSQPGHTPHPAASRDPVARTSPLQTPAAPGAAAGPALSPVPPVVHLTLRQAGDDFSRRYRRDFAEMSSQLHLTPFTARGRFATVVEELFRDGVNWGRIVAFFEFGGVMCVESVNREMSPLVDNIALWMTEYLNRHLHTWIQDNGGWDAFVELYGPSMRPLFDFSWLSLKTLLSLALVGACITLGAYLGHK

Going from `O=C(NS(=O)(=O)c1ccc(N[C@H]2CC[C@H](N3CCOCC3)CC2)c([N+](=O)[O-])c1)c1ccc(N2CCN(CC3=C(c4ccc(Cl)cc4)CCOCC3)CC2)cc1Oc1cc2cc[nH]c2cc1Cl` [Example 315, Trans-2-[(6-chloro-1H-indol-5-yl)oxy]-4-(4-{[5-(4-chlorophenyl)-2,3,6,7-tetrahydrooxepin-4-yl]methyl}piperazin-1-yl)-N-({4-[(4-morpholin-4-ylcyclohexyl)amino]-3-nitrophenyl}sulfonyl)benzamide] to `CC1(C)CCC(CN2CCN(c3ccc(C(=O)NS(=O)(=O)c4ccc(N[C@H]5CC[C@H](N6CCN(C7CCOCC7)CC6)CC5)c([N+](=O)[O-])c4)c(Oc4cc5cc[nH]c5cc4F)c3)CC2)=C(c2ccc(Cl)cc2)C1` [Example 336, Trans-4-(4-{[2-(4-chlorophenyl)-4,4-dimethylcyclohex-1-en-1-yl]methyl}piperazin-1-yl)-2-[(6-fluoro-1H-indol-5-yl)oxy]-N-[(3-nitro-4-{[4-(4-tetrahydro-2H-pyran-4-ylpiperazin-1-yl)cyclohexyl]amino}phenyl)sulfonyl]benzamide], the pKi rises from 8.34 to greater than 11.00. The second binds more tightly here.

For `CC1(C)CCC(CN2CCN(c3ccc(C(=O)NS(=O)(=O)c4cnc(N[C@H]5CC[C@H](N6CCOCC6)CC5)c(Br)c4)c(Oc4cc5cc[nH]c5cc4F)c3)CC2)=C(c2ccc(Cl)cc2)C1` [Example 307, Trans-N-({5-bromo-6-[(4-morpholin-4-ylcyclohexyl)amino]pyridin-3-yl}sulfonyl)-4-(4-{[2-(4-chlorophenyl)-4,4-dimethylcyclohex-1-en-1-yl]methyl}piperazin-1-yl)-2-[(6-fluoro-1H-indol-5-yl)oxy]benzamide], the pKi was 9.28.

Same assay, conditions: GST-Bcl-2 1 nM, F-Bak peptide probe 100 nM, Tb-anti-GST antibody 1 nM; Ki by Wang's equation

`CC1(C)CCC(CN2CCN(c3ccc(C(=O)NS(=O)(=O)c4ccc(NCC5CN(C(CF)CF)CCO5)c([N+](=O)[O-])c4)c(Oc4cnc(N)c(Cl)c4)c3)CC2)=C(c2ccc(Cl)cc2)C1` (stereo not shown) [Example 378, 2-[(6-amino-5-chloropyridin-3-yl)oxy]-4-(4-{[2-(4-chlorophenyl)-4,4-dimethylcyclohex-1-en-1-yl]methyl}piperazin-1-yl)-N-({4-[({4-[2-fluoro-1-(fluoromethyl)ethyl]morpholin-2-yl}methyl)amino]-3-nitrophenyl}sulfonyl)benzamide] and `CC1(C)CCC(CN2CCN(c3ccc(C(=O)NS(=O)(=O)c4ccc(NCC5CCC(F)(F)CC5)c([N+](=O)[O-])c4)c(Oc4cnc(N)c(Cl)c4)c3)CC2)=C(c2ccc(Cl)cc2)C1` [Example 396, 2-[(6-amino-5-chloropyridin-3-yl)oxy]-4-(4-{[2-(4-chlorophenyl)-4,4-dimethylcyclohex-1-en-1-yl]methyl}piperazin-1-yl)-N-[(4-{[(4,4-difluorocyclohexyl)methyl]amino}-3-nitrophenyl)sulfonyl]benzamide] cannot be ordered by pKi: greater than 11.00 for the first, greater than 11.00 for the second.

Going from `CC1(C)CCC(CN2CCN(c3ccc(C(=O)NS(=O)(=O)c4ccc(NCC5CCOCC5)c([N+](=O)[O-])c4)c(Oc4ccnc(N)c4)c3)CC2)=C(c2ccc(Cl)cc2)C1` [Example 282, 2-[(2-aminopyridin-4-yl)oxy]-4-(4-{[2-(4-chlorophenyl)-4,4-dimethylcyclohex-1-en-1-yl]methyl}piperazin-1-yl)-N-({3-nitro-4-[(tetrahydro-2H-pyran-4-ylmethyl)amino]phenyl}sulfonyl)benzamide] to `COc1cccc(Oc2cc(N3CCN(CC4=C(c5ccc(Cl)cc5)CC(C)(C)CC4)CC3)ccc2C(=O)NS(=O)(=O)c2ccc(NC3CCN(C)CC3)c([N+](=O)[O-])c2)c1` [Example 166, 4-(4-{[2-(4-chlorophenyl)-4,4-dimethylcyclohex-1-en-1-yl]methyl}piperazin-1-yl)-2-(3-methoxyphenoxy)-N-({4-[(1-methylpiperidin-4-yl)amino]-3-nitrophenyl}sulfonyl)benzamide], the pKi rises from 8.99 to 10.09 (1.10 log units).

First: CN(C)CCCNc1ccc(S(=O)(=O)NC(=O)c2ccc(N3CCN(CC4=C(c5ccc(Cl)cc5)CC(C)(C)CC4)CC3)cc2Oc2ccccc2Cl)cc1[N+](=O)[O-] [Example 179, 2-(2-chlorophenoxy)-4-(4-{[2-(4-chlorophenyl)-4,4-dimethylcyclohex-1-en-1-yl]methyl}piperazin-1-yl)-N-[(4-{[3-(dimethylamino)propyl]amino}-3-nitrophenyl)sulfonyl]benzamide]
Second: CC1(C)CCC(CN2CCN(c3ccc(C(=O)NS(=O)(=O)c4ccc(NCCCN5CCOCC5)c([N+](=O)[O-])c4)c(Oc4cc(Cl)ccc4Cl)c3)CC2)=C(c2ccc(Cl)cc2)C1 [Example 67, 4-(4-((2-(4-chlorophenyl)-4,4-dimethylcyclohex-1-en-1-yl)methyl)piperazin-1-yl)-2-(2,5-dichlorophenoxy)-N-((4-((3-morpholin-4-ylpropyl)amino)-3-nitrophenyl)sulfonyl)benzamide]
The pKi of the first is 1.35 log units higher: 10.44 for the first, 9.09 for the second. The first binds more tightly here.

Compared with `CN1CCC(Nc2ccc(S(=O)(=O)NC(=O)c3ccc(N4CCN(CC5=C(c6ccc(Cl)cc6)CC(C)(C)CC5)CC4)cc3Oc3cc(F)cc4[nH]ccc34)cc2[N+](=O)[O-])CC1` [Example 209, 4-(4-{[2-(4-chlorophenyl)-4,4-dimethylcyclohex-1-en-1-yl]methyl}piperazin-1-yl)-2-[(6-fluoro-1H-indol-4-yl)oxy]-N-({4-[(1-methylpiperidin-4-yl)amino]-3-nitrophenyl}sulfonyl)benzamide], `COc1ccccc1Oc1cc(N2CCN(CC3=C(c4ccc(Cl)cc4)CC(C)(C)CC3)CC2)ccc1C(=O)NS(=O)(=O)c1ccc(NC2CCN(C)CC2)c([N+](=O)[O-])c1` [Example 180, 4-(4-{[2-(4-chlorophenyl)-4,4-dimethylcyclohex-1-en-1-yl]methyl}piperazin-1-yl)-2-(2-methoxyphenoxy)-N-({4-[(1-methylpiperidin-4-yl)amino]-3-nitrophenyl}sulfonyl)benzamide] is lower in pKi: greater than 11.00 for the first, 9.95 for the second.

Going from `CC1(C)CCC(CN2CCN(c3ccc(C(=O)NS(=O)(=O)c4cnc(OCC5CCOCC5)c(C#N)c4)c(Oc4cc5cc[nH]c5cc4F)c3)CC2)=C(c2ccc(Cl)cc2)C1` [Example 301, 4-(4-{[2-(4-chlorophenyl)-4,4-dimethylcyclohex-1-en-1-yl]methyl}piperazin-1-yl)-N-{[5-cyano-6-(tetrahydro-2H-pyran-4-ylmethoxy)pyridin-3-yl]sulfonyl}-2-[(6-fluoro-1H-indol-5-yl)oxy]benzamide] to `CC1(C)CCC(CN2CCN(c3ccc(C(=O)NS(=O)(=O)c4ccc(NCC5CCC(F)(F)CC5)c([N+](=O)[O-])c4)c(Oc4cc5cc[nH]c5cc4F)c3)CC2)=C(c2ccc(Cl)cc2)C1` [Example 411, 4-(4-{[2-(4-chlorophenyl)-4,4-dimethylcyclohex-1-en-1-yl]methyl}piperazin-1-yl)-N-[(4-{[(4,4-difluorocyclohexyl)methyl]amino}-3-nitrophenyl)sulfonyl]-2-[(6-fluoro-1H-indol-5-yl)oxy]benzamide], the pKi falls from 9.95 to 7.67 (2.28 log units). The first binds more tightly here.

Compared with `CC1(C)CCC(CN2CCN(c3ccc(C(=O)NS(=O)(=O)c4ccc(OCC5(F)CCOCC5)c([N+](=O)[O-])c4)c(Oc4cnc(N)c(Br)c4)c3)CC2)=C(c2ccc(Cl)cc2)C1` [Example 360, 2-[(6-amino-5-bromopyridin-3-yl)oxy]-4-(4-{[2-(4-chlorophenyl)-4,4-dimethylcyclohex-1-en-1-yl]methyl}piperazin-1-yl)-N-({4-[(4-fluorotetrahydro-2H-pyran-4-yl)methoxy]-3-nitrophenyl}sulfonyl)benzamide], `CN1CCN(Nc2ccc(S(=O)(=O)NC(=O)c3ccc(N4CCN(CC5=C(c6ccc(Cl)cc6)CC(C)(C)CC5)CC4)cc3Oc3cnc(N)c(Cl)c3)cc2[N+](=O)[O-])CC1` [Example 343, 2-[(6-amino-5-chloropyridin-3-yl)oxy]-4-(4-{[2-(4-chlorophenyl)-4,4-dimethylcyclohex-1-en-1-yl]methyl}piperazin-1-yl)-N-({4-[(4-methylpiperazin-1-yl)amino]-3-nitrophenyl}sulfonyl)benzamide] is 0.75 log units higher in pKi: 10.30 for the first, 11.05 for the second. The second binds more tightly here.

Compared with `CC1(C)CCC(CN2CCN(c3ccc(C(=O)NS(=O)(=O)c4ccc(NCC5CCOCC5)c([N+](=O)[O-])c4)c(Oc4cc(NC(=O)OC(C)(C)C)nc(NC(=O)OC(C)(C)C)c4)c3)CC2)=C(c2ccc(Cl)cc2)C1` [Example 373, 4-(4-{[2-(4-chlorophenyl)-4,4-dimethylcyclohex-1-en-1-yl]methyl}piperazin-1-yl)-2-[(2,6-Bis-tert-butoxycarbonylamino-pyridin-4-yl)oxy]-N-({3-nitro-4-[(tetrahydro-2H-pyran-4-ylmethyl)amino]phenyl}sulfonyl)benzamide], `CN1CCC(Nc2ccc(S(=O)(=O)NC(=O)c3ccc(N4CCN(CC5=C(c6ccc(Cl)cc6)CC(C)(C)CC5)CC4)cc3Oc3cnc(N)c(Cl)c3)cc2S(=O)(=O)C(F)(F)F)CC1` [Example 354, 2-[(6-amino-5-chloropyridin-3-yl)oxy]-4-(4-{[2-(4-chlorophenyl)-4,4-dimethylcyclohex-1-en-1-yl]methyl}piperazin-1-yl)-N-({4-[(1-methylpiperidin-4-yl)amino]-3-[(trifluoromethyl)sulfonyl]phenyl}sulfonyl)benzamide] is 4.02 log units higher in pKi: 5.92 for the first, 9.94 for the second. The second binds more tightly here.

Going from `CC1(C)CCC(CN2CCN(c3ccc(C(=O)NS(=O)(=O)c4cnc(OC[C@@H]5CCN(C(CF)CF)C5)c(Cl)c4)c(Oc4cnc(N)c(Cl)c4)c3)CC2)=C(c2ccc(Cl)cc2)C1` [Example 399, 2-[(6-amino-5-chloropyridin-3-yl)oxy]-N-{[5-chloro-6-({(3R)-1-[2-fluoro-1-(fluoromethyl)ethyl]pyrrolidin-3-yl}methoxy)pyridin-3-yl]sulfonyl}-4-(4-{[2-(4-chlorophenyl)-4,4-dimethylcyclohex-1-en-1-yl]methyl}piperazin-1-yl)benzamide] to `CN1CCC(Nc2ccc(S(=O)(=O)NC(=O)c3ccc(N4CCN(Cc5cc6c(cc5-c5ccc(Cl)cc5)OCO6)CC4)cc3Oc3ccccc3Cl)cc2[N+](=O)[O-])CC1` [Example 183, 2-(2-chlorophenoxy)-4-(4-{[6-(4-chlorophenyl)-1,3-benzodioxol-5-yl]methyl}piperazin-1-yl)-N-({4-[(1-methylpiperidin-4-yl)amino]-3-nitrophenyl}sulfonyl)benzamide], the pKi falls from greater than 11.00 to 8.60. The first binds more tightly here.
